The values that follow come from ChEMBL document CHEMBL1201862, “PubChem BioAssay data set” (2004).

Some test systems named below: 786-0; A498; BT-549; DU-145; EKVX; HCT-15; M14; Malme-3M; NCI/ADR-RES; OVCAR-3; OVCAR-4; OVCAR-5; PC-3; RXF 393; SF-268; SF-295; SF-539; SK-OV-3; T47D; HOP-62.
What all share (test): NCI tumour cell line growth inhibition, 48 h

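The compound was tested at five concentrations on cells cultured in 96-well plates, with a 48-hour exposure period. GI50: concentration for 50% inhibition of growth.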 Active and inactive are the calls of the source. No stated cut-off is given here; in the data, active = GI50 up to about 1.1 µM and inactive = higher.

For `COC(=O)c1ccccc1NC(=O)/C(=N\NC(C)(C)C)C(C#N)c1nc(-c2ccc([N+](=O)[O-])cc2)cs1` (stereo unspecified), the GI50 was > 100 µM (inactive) with 786-0; > 100 µM (inactive) in the experiment with A498; > 100 µM (inactive) in the experiment with BT-549; > 100 µM (inactive) in the experiment on DU-145; > 100 µM (inactive) with EKVX; over 100 µM in the experiment with HCT-15. Moreover, the GI50 in the experiment with M14, in the experiment with Malme-3M, with NCI/ADR-RES, with OVCAR-3, with OVCAR-4 and in the experiment with OVCAR-5 was > 100 µM (inactive) each time. In addition, the GI50 with PC-3, in the experiment with RXF 393, with SF-268, in the experiment on SF-295, in the experiment with SF-539 and in the experiment on SK-OV-3 was > 100 µM (inactive) each time. In the experiment with T47D, the GI50 is > 100 µM (inactive).

Consider `O=C(NNC(=S)Nc1ccc(Br)cc1)c1cc(-c2ccccc2)nc2ccccc12`, for which the GI50 in the experiment with 786-0 is 19 µM (inactive); in the experiment with A498, 13.8 µM (inactive); in the experiment with BT-549, 24.5 µM (inactive); in the experiment on DU-145, 19.9 µM (inactive); in the experiment on HCT-15, 24 µM; in the experiment with HOP-62, 20 µM (inactive). The GI50 in the experiment on M14 was 17 µM (inactive); with Malme-3M, 17.3 µM (inactive); in the experiment with NCI/ADR-RES, 18.6 µM (inactive); with OVCAR-3, 17 µM (inactive); in the experiment with OVCAR-4, 19.8 µM (inactive); in the experiment with OVCAR-5, 24.9 µM (inactive). Also, the GI50 in the experiment on PC-3 is 20.1 µM (inactive); in the experiment on RXF 393 it was 18.4 µM (inactive); in the experiment on SF-268 it was 33.3 µM (inactive); in the experiment on SF-295, 19.2 µM (inactive); in the experiment with SF-539, 16.6 µM (inactive); with SK-OV-3, 25.2 µM (inactive). Besides, the GI50 with T47D was 17.1 µM (inactive).

For the compound `O=C(/C=C/c1ccc(O)cc1)NCCc1ccc(O)cc1` [N-P-COUMAROYL TYRAMINE], the GI50 in the experiment on 786-0 was > 12.5 µM (inactive); in the experiment on A498, > 12.5 µM (inactive); in the experiment with BT-549, 7.53 µM (inactive); in the experiment on DU-145, 12 µM (inactive); in the experiment on EKVX, 3.05 µM (inactive); in the experiment with HCT-15, over 12.5 µM. For the same compound, the GI50 in the experiment on HOP-62 was > 12.5 µM (inactive); in the experiment with M14 it was > 12.5 µM (inactive); in the experiment with Malme-3M, > 12.5 µM (inactive); in the experiment on NCI/ADR-RES, 3.62 µM (inactive); in the experiment with OVCAR-3, 8.93 µM (inactive); in the experiment on OVCAR-4, 8.63 µM (inactive). For the same compound, the GI50 in the experiment with OVCAR-5 is > 12.5 µM (inactive); with PC-3, 8.57 µM (inactive); with RXF 393 it was > 12.5 µM (inactive); in the experiment on SF-268, 9.57 µM (inactive); with SF-295, 8.13 µM (inactive); in the experiment with SF-539, 3.13 µM (inactive). The GI50 in the experiment with T47D was > 12.5 µM (inactive).

In the case of `O=C(O)c1cccc(/[As]=[As]\c2cccc(C(=O)O)c2)c1` (stereo unspecified), the GI50 in the experiment on 786-0 was 24.8 µM (inactive); in the experiment on A498, 28 µM (inactive); in the experiment with BT-549 it was 70.6 µM (inactive); in the experiment with DU-145, 86.5 µM (inactive); in the experiment on EKVX, 59.8 µM (inactive); with HCT-15 it was 36.3 µM. Also, the GI50 is 35.2 µM (inactive) in the experiment on HOP-62; 45.9 µM (inactive) in the experiment on M14; 21.4 µM (inactive) in the experiment with Malme-3M; 75.7 µM (inactive) with NCI/ADR-RES; 34.4 µM (inactive) with OVCAR-3; 51.9 µM (inactive) in the experiment on OVCAR-4. Further, the GI50 with OVCAR-5 is 24.5 µM (inactive); in the experiment with PC-3, 16.9 µM (inactive); in the experiment on RXF 393, 26.9 µM (inactive); with SF-268, 29.3 µM (inactive); in the experiment on SF-295 it was > 100 µM (inactive); in the experiment with SF-539, 16.6 µM (inactive). For the same compound, in the experiment with T47D, the GI50 was 34.9 µM (inactive).

Regarding `O=c1cc(NNc2cccc(Cl)c2)[nH]c(=O)[nH]1`, the GI50 in the experiment on 786-0 was 16.2 µM (inactive); with A498, 42.2 µM (inactive); in the experiment with BT-549, > 100 µM (inactive); in the experiment on DU-145 it was 72.3 µM (inactive); with HCT-15, 17.1 µM; with M14 it was 16.7 µM (inactive). Moreover, the GI50 with Malme-3M is 16.3 µM (inactive); in the experiment on NCI/ADR-RES, > 100 µM (inactive); with OVCAR-3 it was 17.3 µM (inactive); in the experiment on OVCAR-4, > 100 µM (inactive); with OVCAR-5, 77.4 µM (inactive); in the experiment on PC-3, 75.3 µM (inactive). The GI50 in the experiment on RXF 393, with SF-268, with SF-539, with SK-OV-3 and with T47D was > 100 µM (inactive) throughout.

For the compound `Cc1ccc(C2=Nc3cc(C)c(Cl)cc3S(=O)(=O)NN2)cc1`, the GI50 is 58.1 µM (inactive) in the experiment on 786-0; > 100 µM (inactive) with A498; > 100 µM (inactive) with BT-549; > 100 µM (inactive) in the experiment with DU-145; > 100 µM (inactive) in the experiment on EKVX; over 100 µM in the experiment on HCT-15. In addition, the GI50 was > 100 µM (inactive) with HOP-62; > 100 µM (inactive) with M14; > 100 µM (inactive) with Malme-3M; > 100 µM (inactive) in the experiment with NCI/ADR-RES; > 100 µM (inactive) in the experiment on OVCAR-3; 77.4 µM (inactive) in the experiment on OVCAR-4. The GI50 in the experiment with PC-3 is > 100 µM (inactive); in the experiment on RXF 393, 72.1 µM (inactive); with SF-268, 82.6 µM (inactive); in the experiment with SF-295 it was > 100 µM (inactive); in the experiment with SF-539, > 100 µM (inactive); in the experiment on SK-OV-3, > 100 µM (inactive). Besides, the GI50 in the experiment on T47D was 54 µM (inactive).

Consider `C[C@]12CC[C@@H]3c4cc(Br)c(O)c(Br)c4CC[C@H]3[C@@H]1CCC2=O`, for which the GI50 was 19.7 µM (inactive) in the experiment on 786-0; 40.9 µM (inactive) in the experiment on A498; 23.8 µM (inactive) in the experiment on BT-549; 39.6 µM (inactive) with DU-145; 25.5 µM (inactive) in the experiment with EKVX; 12.4 µM in the experiment with HCT-15. The GI50 in the experiment with M14 was 39.2 µM (inactive); in the experiment on Malme-3M it was 85.9 µM (inactive); in the experiment with NCI/ADR-RES, 12.5 µM (inactive); in the experiment with OVCAR-3 it was 16.4 µM (inactive); in the experiment on OVCAR-4 it was 13.3 µM (inactive); with OVCAR-5, 21.8 µM (inactive). Further, the GI50 was 30.8 µM (inactive) with PC-3; 16.7 µM (inactive) in the experiment on RXF 393; 23.3 µM (inactive) in the experiment with SF-268; 16.4 µM (inactive) in the experiment on SF-295; 19.9 µM (inactive) with SF-539; 31.4 µM (inactive) in the experiment on SK-OV-3. The GI50 in the experiment on T47D is 33.9 µM (inactive).
